In patent USRE39591E1, “6-O-substituted ketolides having antibacterial activity” (Abbott Laboratories, priority 1996, dated 2007):
Converted amounts (≈) assume the structure as drawn.

Test system: up to 32 different microorganisms
Assay: in vitro antibacterial activity (MIC), agar dilution on Brain Heart Infusion (BHI) agar with Steers replicator
Assay type: cell-based
Conditions: unit assumed
How it was run: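 Agar dilution MIC: twelve successive compound dilutions in BHI agar, spot-inoculated with 1:100 (1:10 for slow growers) organism dilutions by Steers replicator, incubated 35-37° C for 20-24 h. MIC is lowest concentration showing no growth, slight haze or sparse colonies versus drug-free control; erythromycin A as class reference.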

[1] = Candida albicans CCH 442 (code TT)
[2] = Enterococcus faecism ATCC 8043 (code II)
[3] = Escherichia coli DC-2 (code SS)
[4] = Escherichia coli JUHL (code QQ)
[5] = Haemophilis influenzae DILL AMP R (code WW)
[6] = Micrococcus luteus ATCC 4698 (code PP)
[7] = Micrococcus luteus ATCC 9341 (code OO)
[8] = Mycobacterium smegmatis ATCC 114 (code UU)
[9] = Nocardia Asteroides ATCC9970 (code VV)
[10] = Staphylococcus aureus 1775 (code GG)
[11] = Staphylococcus aureus A5177 (code BB)
[12] = Staphylococcus aureus A-5278 (code CC)
[13] = Staphylococcus aureus ATCC 6538P (code AA)
[14] = Staphylococcus aureus CMX 553 (code FF)
[15] = Staphylococcus aureus CMX 642A (code DD)
[16] = Staphylococcus aureus NCTC10649M (code EE)
[17] = Staphylococcus epidermidis 3519 (code HH)
[18] = Streptococcus Pneumonia 5649 (code ZZA)
[19] = Streptococcus Pneumonia 5979 (code ZZ)
[20] = Streptococcus Pneumonia ATCC6303 (code XX)
[21] = Streptococcus Pneumonia GYR 1171 (code YY)
[22] = Streptococcus agalactiae CMX 508 (code KK)
[23] = Streptococcus bovis A-5169 (code JJ)
[24] = Streptococcus pyogenes 930 (code MM)
[25] = Streptococcus pyogenes EES61 (code LL)
[26] = Streptococcus pyogenes PIU 2548 (code NN)

In the case of `CC[C@H]1OC(=O)[C@H](C)C(=O)[C@H](C)[C@@H](O[C@@H]2O[C@H](C)C[C@H](N(C)C)[C@H]2O)[C@@](C)(OCC=Cc2ccc(Cl)cc2)C[C@@H](C)C(=O)[C@H](C)[C@H]2OC(=O)O[C@@]21C` [Example 74, Compound of Formula (IX): L is CO, T is O, R is —CH2CH═CH-(4-chlorophenyl)], the MIC [1] is reported as > 100 µg/mL, the MIC [2] is reported as 0.1 µg/mL and the MIC [3] is reported as > 100 µg/mL. For the same compound, the MIC [4] was > 100 µg/mL, the MIC (Escherichia coli SS (code RR)) was 3.3 µg/mL and the MIC [5] was 4 µg/mL. For the same compound, the MIC [6] was 0.2 µg/mL, the MIC [7] was 0.05 µg/mL and the MIC [8] was 0.39 µg/mL. For the same compound, the MIC [9] was 0.39 µg/mL, the MIC [10] was > 100 µg/mL and the MIC [11] was 0.2 µg/mL. For the same compound, the MIC [12] was > 100 µg/mL, the MIC [13] was 0.2 µg/mL and the MIC [14] was 0.2 µg/mL. For the same compound, the MIC [15] was 0.2 µg/mL, the MIC [16] was 0.2 µg/mL and the MIC [17] was 0.2 µg/mL. For the same compound, the MIC [18] was 0.5 µg/mL, the MIC [19] was 32 µg/mL and the MIC [20] was 0.125 µg/mL. For the same compound, the MIC [21] was 0.125 µg/mL, the MIC [22] was 0.05 µg/mL and the MIC [23] was 0.05 µg/mL. For the same compound, the MIC [24] was 50 µg/mL, the MIC [25] was 0.05 µg/mL and the MIC [26] was 0.39 µg/mL.
For `CC[C@H]1OC(=O)[C@H](C)C(=O)[C@H](C)[C@@H](O[C@@H]2O[C@H](C)C[C@H](N(C)C)[C@H]2O)[C@@](C)(OCc2ccc3ccccc3c2)C[C@@H](C)C(=O)[C@H](C)[C@H]2NC(=O)O[C@@]21C` [Example 176, Compound of Formula (IX): L is CO, T is NH, R is —CH2-(2-naphthyl)], the MIC [1] was > 100 µg/mL, the MIC [2] was 0.2 µg/mL and the MIC [3] was > 100 µg/mL. For the same compound, the MIC [4] was > 100 µg/mL, the MIC (Escherichia coli SS (code RR)) was 3.1 µg/mL and the MIC [5] was 64 µg/mL. It also gave an MIC [6] of 0.2 µg/mL, an MIC [7] of 0.05 µg/mL and an MIC [8] of 0.78 µg/mL. For the same compound, the MIC [9] was 1.56 µg/mL, the MIC [10] was 100 µg/mL and the MIC [11] was 0.78 µg/mL. For the same compound, the MIC [12] was > 100 µg/mL, the MIC [13] was 1.56 µg/mL and the MIC [14] was 0.78 µg/mL. For the same compound, the MIC [15] was 1.56 µg/mL, the MIC [16] was 0.78 µg/mL and the MIC [17] was 0.78 µg/mL. It also gave an MIC [18] of 0.25 µg/mL, an MIC [19] of 64 µg/mL and an MIC [20] of 0.25 µg/mL. The MIC [21] was 0.25 µg/mL, the MIC [22] was 0.05 µg/mL and the MIC [23] was 0.05 µg/mL. For the same compound, the MIC [24] was 50 µg/mL, the MIC [25] was 0.05 µg/mL and the MIC [26] was 0.2 µg/mL.
`CC[C@H]1OC(=O)[C@H](C)C(=O)[C@H](C)[C@@H](O[C@@H]2O[C@H](C)C[C@H](N(C)C)[C@H]2O)[C@@](C)(OCC=Cc2cnc3ccccc3c2)C[C@@H](C)C(=O)[C@H](C)[C@@H](O)[C@]1(C)O` [Example 18, Compound of Formula (VIII): X is O, R is —CH2CH═CH-(3-quinolyl)] was tested, and the MIC [1] was > 100 µg/mL, the MIC [2] was 0.2 µg/mL and the MIC [3] was > 100 µg/mL. For the same compound, the MIC [4] was > 100 µg/mL, the MIC (Escherichia coli SS (code RR)) was 0.39 µg/mL and the MIC [5] was 16 µg/mL. For the same compound, the MIC [6] was 0.2 µg/mL, the MIC [9] was 0.1 µg/mL and the MIC [10] was > 100 µg/mL. The MIC [11] was 0.2 µg/mL, the MIC [12] was > 100 µg/mL and the MIC [13] was 0.2 µg/mL. The MIC [14] was 0.2 µg/mL, the MIC [15] was 0.2 µg/mL and the MIC [16] was 0.2 µg/mL. The MIC [17] was 0.2 µg/mL, the MIC [18] was 0.25 µg/mL and the MIC [19] was 128 µg/mL. For the same compound, the MIC [20] was 0.03 µg/mL, the MIC [22] was 0.2 µg/mL and the MIC [24] was 100 µg/mL. For the same compound, the MIC [25] was 0.2 µg/mL and the MIC [26] was 0.1 µg/mL.
`CC[C@H]1OC(=O)[C@H](C)C(=O)[C@H](C)[C@@H](O[C@@H]2O[C@H](C)C[C@H](N(C)C)[C@H]2O)[C@@](C)(OCCNCCc2ccccc2)C[C@@H](C)C(=O)[C@H](C)[C@H]2NC(=O)O[C@@]21C` [Example 222, Compound of Formula (IX): L is CO, T is NH, R is —CH2CH2NHCH2CH2Phenyl] was tested, and the MIC (organism code AA) was 0.2 µg/mL, the MIC (organism code BB) was 0.1 µg/mL and the MIC (organism code CC) was > 100 µg/mL. It also gave an MIC (organism code DD) of 0.39 µg/mL, an MIC (organism code EE) of 0.2 µg/mL and an MIC (organism code FF) of 0.2 µg/mL. For the same compound, the MIC (organism code GG) was > 100 µg/mL, the MIC (organism code HH) was 0.2 µg/mL and the MIC (organism code II) was 0.02 µg/mL. For the same compound, the MIC (organism code JJ) was ≤ 0.005 µg/mL, the MIC (organism code KK) was 0.02 µg/mL and the MIC (organism code LL) was ≤ 0.005 µg/mL. For the same compound, the MIC (organism code MM) was > 100 µg/mL, the MIC (organism code NN) was 0.39 µg/mL and the MIC (organism code OO) was 0.01 µg/mL. The MIC (organism code PP) was 0.2 µg/mL, the MIC (organism code QQ) was 25 µg/mL and the MIC (organism code RR) was 0.1 µg/mL. For the same compound, the MIC (organism code SS) was 25 µg/mL, the MIC (organism code TT) was > 100 µg/mL and the MIC (organism code UU) was 0.78 µg/mL. For the same compound, the MIC (organism code VV) was 0.2 µg/mL, the MIC (organism code WW) was 4 µg/mL and the MIC (organism code XX) was 0.03 µg/mL. For the same compound, the MIC (organism code YY) was 0.06 µg/mL, the MIC (organism code ZZ) was > 128 µg/mL and the MIC (organism code ZZA) was 2 µg/mL.
For `CCC(=O)OC1C(OC2C(C)C(=O)C(C)C(=O)OC(CC)C3(C)OC(=O)NC3C(C)C(=O)C(C)CC2(C)OCC=Cc2cnc3ccccc3c2)OC(C)CC1N(C)C` (centres unmarked) [Example 244, Compound of Formula (III): R^c is propanoyl, L is CO, T is NH, R is —CH2CH═CH(3-quinolyl)], the MIC (organism code AA) was 0.1 µg/mL, the MIC (organism code BB) was 0.2 µg/mL and the MIC (organism code CC) was > 100 µg/mL. It also gave an MIC (organism code DD) of 0.2 µg/mL, an MIC (organism code EE) of 0.2 µg/mL and an MIC (organism code FF) of 0.1 µg/mL. The MIC (organism code GG) was > 100 µg/mL, the MIC (organism code HH) was 0.2 µg/mL and the MIC (organism code II) was 0.05 µg/mL. The MIC (organism code JJ) was 0.01 µg/mL, the MIC (organism code KK) was ≤ 0.005 µg/mL and the MIC (organism code LL) was 0.02 µg/mL. For the same compound, the MIC (organism code MM) was 1.56 µg/mL, the MIC (organism code NN) was 0.2 µg/mL and the MIC (organism code OO) was 0.02 µg/mL. For the same compound, the MIC (organism code PP) was 0.2 µg/mL, the MIC (organism code QQ) was 50 µg/mL and the MIC (organism code RR) was 0.1 µg/mL. The MIC (organism code SS) was 25 µg/mL, the MIC (organism code TT) was > 100 µg/mL and the MIC (organism code UU) was 0.78 µg/mL. It also gave an MIC (organism code VV) of 0.02 µg/mL, an MIC (organism code WW) of 2 µg/mL and an MIC (organism code XX) of 0.03 µg/mL. It also gave an MIC (organism code YY) of 0.03 µg/mL, an MIC (organism code ZZ) of 64 µg/mL and an MIC (organism code ZZA) of 0.5 µg/mL.
With `CCC1OC(=O)C(C)C(=O)C(C)C(OC2OC(C)CC(N(C)C)C2O)C(C)(OCC=Cc2cncc3ccccc23)CC(C)C(=O)C(C)C2NC(=O)OC12C` (centres unmarked) [Example 187, R is —CH2CH═CH-(4-isoquinolinyl)] the MIC [1] was > 100 µg/mL, the MIC [2] was 0.02 µg/mL (≈ 0.0261 µM) and the MIC [3] was > 100 µg/mL. The MIC [4] was 100 µg/mL (≈ 131 µM), the MIC (Escherichia coli SS (code RR)) was 0.39 µg/mL (≈ 0.509 µM) and the MIC [5] was 2 µg/mL (≈ 2.61 µM). The MIC [6] was 0.02 µg/mL (≈ 0.0261 µM), the MIC [7] was 0.02 µg/mL (≈ 0.0261 µM) and the MIC [8] was 0.78 µg/mL (≈ 1.02 µM). The MIC [9] was 0.1 µg/mL (≈ 0.131 µM), the MIC [10] was > 100 µg/mL and the MIC [11] was 0.1 µg/mL (≈ 0.131 µM). For the same compound, the MIC [12] was > 100 µg/mL, the MIC [13] was 0.2 µg/mL (≈ 0.261 µM) and the MIC [14] was 0.1 µg/mL (≈ 0.131 µM). The MIC [15] was 0.1 µg/mL (≈ 0.131 µM), the MIC [16] was 0.1 µg/mL (≈ 0.131 µM) and the MIC [17] was 0.1 µg/mL (≈ 0.131 µM). The MIC [18] was 0.25 µg/mL (≈ 0.326 µM), the MIC [19] was > 16 µg/mL and the MIC [20] was 0.03 µg/mL (≈ 0.0392 µM). For the same compound, the MIC [21] was 0.03 µg/mL (≈ 0.0392 µM), the MIC [22] was 0.02 µg/mL (≈ 0.0261 µM) and the MIC [23] was ≤ 0.005 µg/mL. It also gave an MIC [24] of 25 µg/mL (≈ 32.6 µM), an MIC [25] of 0.01 µg/mL (≈ 0.0131 µM) and an MIC [26] of 0.1 µg/mL (≈ 0.131 µM).
